# Counter-ions that a name gives are not always drawn.
# Columns and labels:
# [1] = molecular target: T1, human JAK2 kinase domain (JH1) (Homo sapiens, UniProt O60674); assay: JH1 biochemical assay for JAK2 (ADP-Glo kinase assay, recombinant JH1 catalytic domain, JAK3-974 peptide, 15 μM ATP)
# T1 construct: recombinantly generated catalytic kinase (also known as JH1) domain of human JAK1, JAK2, JAK3 and TYK2
# How it was run: (§1)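 Enzyme levels: JAK1 4 nM, JAK2 0.2 nM, JAK3 0.3 nM, TYK2 2 nM. Peptide substrate at 50 μM. Reactions ran 100 minutes; ADP formed was converted to luciferase luminescence after ATP depletion. Compounds tested from 10 μM or 1 μM top, 11-point 3-fold dilutions; IC50 from 4-parameter logistic fit of normalized percent activity.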
# [2] = molecular target: Tyk2 kinase activity on STAT4 in NK92 cells (Homo sapiens, UniProt P29597); assay: pSTAT4 cell assay (MSD; NK92 cells, 30 ng/mL IL2 stimulation); type: cell-based; conditions: 30 ng/mL IL2, 15 minutes
# How it was run: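 Compound treatment of starved NK92 cells ran 1 hr before a 15-minute, 30 ng/mL IL2 pulse; lysates went to an MSD anti-STAT4 antibody assay, with curves fitted by 4-parameter logistic model.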
# [3] = molecular target: T2, human JAK3 kinase domain (JH1) (Homo sapiens, UniProt P52333); assay: JH1 biochemical assay for JAK3 (ADP-Glo kinase assay, recombinant JH1 catalytic domain, JAK3-974 peptide, 4 μM ATP)
# T2 construct: recombinantly generated catalytic kinase (also known as JH1) domain of human JAK1, JAK2, JAK3 and TYK2
# How it was run: as §1
# [4] = molecular target: T3, human TYK2 kinase domain (JH1) (Homo sapiens, UniProt P29597); assay: JH1 biochemical assay for TYK2 (ADP-Glo kinase assay, recombinant JH1 catalytic domain, JAK3-974 peptide, 10 μM ATP)
# T3 construct: recombinantly generated catalytic kinase (also known as JH1) domain of human JAK1, JAK2, JAK3 and TYK2
# T3 sequence (P29597 897-1176 limits assumed): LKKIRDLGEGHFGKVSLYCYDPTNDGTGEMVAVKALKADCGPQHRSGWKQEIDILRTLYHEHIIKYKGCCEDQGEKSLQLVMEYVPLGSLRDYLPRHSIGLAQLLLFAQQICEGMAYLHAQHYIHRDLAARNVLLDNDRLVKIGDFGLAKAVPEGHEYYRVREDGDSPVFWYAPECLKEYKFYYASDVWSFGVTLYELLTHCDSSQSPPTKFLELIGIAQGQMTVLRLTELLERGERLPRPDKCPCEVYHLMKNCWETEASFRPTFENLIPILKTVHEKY
# How it was run: as §1
# [5] = molecular target: T4, human JAK1 kinase domain (JH1) (Homo sapiens, UniProt P23458); assay: JH1 biochemical assay for JAK1 (ADP-Glo kinase assay, recombinant JH1 catalytic domain, JAK3-342 peptide, 35 μM ATP)
# T4 construct: recombinantly generated catalytic kinase (also known as JH1) domain of human JAK1, JAK2, JAK3 and TYK2
# How it was run: as §1
# [6] = molecular target: JAK1 kinase activity on STAT3 in TF1 cells (Homo sapiens, UniProt P23458); assay: pSTAT3 cell assay (MSD; TF1 cells, 30 ng/mL IL-6 stimulation); type: cell-based; conditions: 30 ng/mL IL-6, 15 minutes
# How it was run: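 IC50 values reflect 4-parameter logistic fits of normalized pSTAT3 signal, measured by MSD in lysed TF1 cells. Cells were serum-starved and treated with compound for 1 h (top concentration 10 μM) before a 15 min IL-6 challenge.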
# [7] = molecular target: JAK2 kinase activity on STAT5 in TF1 cells (Homo sapiens, UniProt O60674); assay: pSTAT5 cell assay (MSD; TF1 cells, 30 ng/mL IL-3 stimulation); type: cell-based; conditions: 30 ng/mL IL-3, 15 minutes
# How it was run: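 IC50 from a 4-parameter logistic fit of normalized pSTAT5 signal, measured by MSD in lysates of TF1 cells. Cells were serum-starved, exposed to compound for 1 h (top concentration 10 μM, four-fold, 10 points), then given IL-3 at 30 ng/mL for 15 min.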
# Chain of Tyk2 kinase activity on STAT4 in NK92 cells (P29597 whole entry): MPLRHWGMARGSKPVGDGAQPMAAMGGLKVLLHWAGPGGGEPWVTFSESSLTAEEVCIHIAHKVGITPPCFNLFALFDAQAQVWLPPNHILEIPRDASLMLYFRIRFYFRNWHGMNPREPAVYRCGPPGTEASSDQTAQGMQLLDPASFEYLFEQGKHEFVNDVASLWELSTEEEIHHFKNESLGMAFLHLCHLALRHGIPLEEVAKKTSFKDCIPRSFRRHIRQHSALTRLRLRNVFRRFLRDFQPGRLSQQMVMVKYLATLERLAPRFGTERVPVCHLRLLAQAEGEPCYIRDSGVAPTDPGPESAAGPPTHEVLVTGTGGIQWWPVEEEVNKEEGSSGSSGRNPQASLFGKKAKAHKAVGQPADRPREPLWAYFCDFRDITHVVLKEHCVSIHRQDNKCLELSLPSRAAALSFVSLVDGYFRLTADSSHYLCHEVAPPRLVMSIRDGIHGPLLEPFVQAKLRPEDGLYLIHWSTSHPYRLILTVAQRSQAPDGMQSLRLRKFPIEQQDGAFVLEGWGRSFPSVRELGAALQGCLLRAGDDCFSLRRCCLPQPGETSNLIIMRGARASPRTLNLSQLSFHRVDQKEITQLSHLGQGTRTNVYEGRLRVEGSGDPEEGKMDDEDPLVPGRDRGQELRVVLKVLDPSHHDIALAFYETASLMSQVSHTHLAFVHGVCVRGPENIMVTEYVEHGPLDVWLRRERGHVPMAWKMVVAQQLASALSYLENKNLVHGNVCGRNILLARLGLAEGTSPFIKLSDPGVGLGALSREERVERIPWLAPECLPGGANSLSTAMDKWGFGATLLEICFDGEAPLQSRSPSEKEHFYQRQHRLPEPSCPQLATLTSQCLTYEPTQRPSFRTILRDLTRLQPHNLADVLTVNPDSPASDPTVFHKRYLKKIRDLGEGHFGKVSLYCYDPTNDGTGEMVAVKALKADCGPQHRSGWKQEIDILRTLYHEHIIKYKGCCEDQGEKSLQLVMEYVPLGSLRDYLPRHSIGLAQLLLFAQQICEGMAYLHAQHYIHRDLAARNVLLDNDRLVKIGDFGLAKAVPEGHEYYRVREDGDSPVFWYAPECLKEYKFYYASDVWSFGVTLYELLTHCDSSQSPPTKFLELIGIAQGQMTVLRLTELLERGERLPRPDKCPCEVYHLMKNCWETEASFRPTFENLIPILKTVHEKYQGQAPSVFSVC
# T1 sequence (O60674 849-1124 limits assumed): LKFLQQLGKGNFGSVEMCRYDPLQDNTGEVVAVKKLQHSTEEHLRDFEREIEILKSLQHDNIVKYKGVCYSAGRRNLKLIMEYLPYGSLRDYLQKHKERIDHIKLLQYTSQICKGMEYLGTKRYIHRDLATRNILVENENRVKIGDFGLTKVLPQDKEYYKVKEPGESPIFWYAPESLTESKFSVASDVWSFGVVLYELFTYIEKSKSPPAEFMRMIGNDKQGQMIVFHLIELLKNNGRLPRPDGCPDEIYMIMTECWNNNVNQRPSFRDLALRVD
# Chain of JAK1 kinase activity on STAT3 in TF1 cells (P23458 whole entry): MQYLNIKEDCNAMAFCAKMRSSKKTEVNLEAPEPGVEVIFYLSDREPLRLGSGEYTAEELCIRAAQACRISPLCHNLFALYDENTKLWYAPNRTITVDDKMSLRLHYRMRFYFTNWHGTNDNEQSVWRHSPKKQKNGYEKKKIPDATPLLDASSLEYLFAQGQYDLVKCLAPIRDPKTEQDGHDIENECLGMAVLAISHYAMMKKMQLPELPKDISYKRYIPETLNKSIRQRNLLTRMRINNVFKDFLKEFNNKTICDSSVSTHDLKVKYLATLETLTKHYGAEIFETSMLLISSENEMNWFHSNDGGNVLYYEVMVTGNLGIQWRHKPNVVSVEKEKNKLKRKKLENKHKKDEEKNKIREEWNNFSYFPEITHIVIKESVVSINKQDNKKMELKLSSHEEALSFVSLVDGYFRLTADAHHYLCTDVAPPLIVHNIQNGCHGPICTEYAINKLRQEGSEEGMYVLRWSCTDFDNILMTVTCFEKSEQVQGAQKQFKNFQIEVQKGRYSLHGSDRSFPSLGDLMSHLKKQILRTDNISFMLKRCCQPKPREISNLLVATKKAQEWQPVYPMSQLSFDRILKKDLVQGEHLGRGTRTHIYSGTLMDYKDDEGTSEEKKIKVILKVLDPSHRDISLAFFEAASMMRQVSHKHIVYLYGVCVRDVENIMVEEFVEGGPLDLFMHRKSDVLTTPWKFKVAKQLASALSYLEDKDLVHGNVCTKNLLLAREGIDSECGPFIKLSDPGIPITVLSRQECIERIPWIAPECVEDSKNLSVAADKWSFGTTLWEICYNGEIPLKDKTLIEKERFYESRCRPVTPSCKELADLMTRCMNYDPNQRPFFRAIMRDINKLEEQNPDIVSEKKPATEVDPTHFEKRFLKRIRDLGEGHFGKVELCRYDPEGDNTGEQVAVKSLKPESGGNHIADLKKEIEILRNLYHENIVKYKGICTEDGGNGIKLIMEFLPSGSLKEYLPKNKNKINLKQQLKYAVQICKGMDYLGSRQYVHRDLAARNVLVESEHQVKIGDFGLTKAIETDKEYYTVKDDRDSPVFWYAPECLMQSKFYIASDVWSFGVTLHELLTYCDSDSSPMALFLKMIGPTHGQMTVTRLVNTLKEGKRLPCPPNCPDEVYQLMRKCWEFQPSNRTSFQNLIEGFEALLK
# Chain of JAK2 kinase activity on STAT5 in TF1 cells (O60674 whole entry): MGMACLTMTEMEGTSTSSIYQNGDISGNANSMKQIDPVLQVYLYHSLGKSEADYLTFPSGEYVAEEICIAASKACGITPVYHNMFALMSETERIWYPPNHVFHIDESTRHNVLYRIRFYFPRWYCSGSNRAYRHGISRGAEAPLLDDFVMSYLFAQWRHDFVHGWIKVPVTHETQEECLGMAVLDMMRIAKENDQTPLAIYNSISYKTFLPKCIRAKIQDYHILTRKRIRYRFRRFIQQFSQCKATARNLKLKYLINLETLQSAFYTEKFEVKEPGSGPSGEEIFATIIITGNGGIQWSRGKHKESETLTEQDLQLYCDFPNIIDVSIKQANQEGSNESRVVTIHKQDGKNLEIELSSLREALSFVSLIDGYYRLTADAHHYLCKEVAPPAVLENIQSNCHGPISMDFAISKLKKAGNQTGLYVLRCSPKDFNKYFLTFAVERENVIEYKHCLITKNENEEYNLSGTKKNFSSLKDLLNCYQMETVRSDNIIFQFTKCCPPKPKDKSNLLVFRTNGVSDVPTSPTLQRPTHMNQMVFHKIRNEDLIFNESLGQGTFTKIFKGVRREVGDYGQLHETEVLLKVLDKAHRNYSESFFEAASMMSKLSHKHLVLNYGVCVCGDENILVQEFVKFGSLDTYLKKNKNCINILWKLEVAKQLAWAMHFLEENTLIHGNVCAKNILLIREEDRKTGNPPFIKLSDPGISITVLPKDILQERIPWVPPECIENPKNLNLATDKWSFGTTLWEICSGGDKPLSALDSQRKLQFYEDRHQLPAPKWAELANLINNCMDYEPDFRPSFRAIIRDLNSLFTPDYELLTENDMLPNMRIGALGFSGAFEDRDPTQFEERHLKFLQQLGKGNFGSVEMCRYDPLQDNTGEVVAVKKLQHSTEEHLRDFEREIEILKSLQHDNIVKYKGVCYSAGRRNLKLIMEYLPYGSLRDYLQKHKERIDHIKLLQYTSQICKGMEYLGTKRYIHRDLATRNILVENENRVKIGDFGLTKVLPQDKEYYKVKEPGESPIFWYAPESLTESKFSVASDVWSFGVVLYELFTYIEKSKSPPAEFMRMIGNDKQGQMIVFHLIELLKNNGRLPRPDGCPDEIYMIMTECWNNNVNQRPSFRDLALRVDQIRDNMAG
# T2 sequence (P52333 822-1111 limits assumed): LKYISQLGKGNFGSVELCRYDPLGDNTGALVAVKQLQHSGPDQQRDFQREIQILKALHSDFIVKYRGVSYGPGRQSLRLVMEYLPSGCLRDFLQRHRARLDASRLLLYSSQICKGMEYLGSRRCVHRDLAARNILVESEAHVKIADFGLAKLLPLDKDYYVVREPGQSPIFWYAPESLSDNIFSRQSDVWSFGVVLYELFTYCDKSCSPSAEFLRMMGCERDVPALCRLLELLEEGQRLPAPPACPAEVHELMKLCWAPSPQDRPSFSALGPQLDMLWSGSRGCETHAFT
# T4 sequence (P23458 875-1153 limits assumed): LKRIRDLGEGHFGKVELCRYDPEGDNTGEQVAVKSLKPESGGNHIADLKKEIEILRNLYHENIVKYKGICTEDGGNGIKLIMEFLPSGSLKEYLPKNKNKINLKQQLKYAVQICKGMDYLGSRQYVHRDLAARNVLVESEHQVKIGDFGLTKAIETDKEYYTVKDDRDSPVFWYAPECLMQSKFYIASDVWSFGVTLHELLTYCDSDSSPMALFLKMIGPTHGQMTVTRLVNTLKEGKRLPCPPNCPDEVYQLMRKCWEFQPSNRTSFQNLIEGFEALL
Structure (SMILES),"IC50 ([1]; JH1 kinase domain, ADP-Glo) [nM]",IC50 [2] [nM],"IC50 ([3]; JH1 kinase domain, ADP-Glo) [nM]","IC50 ([4]; JH1 kinase domain, ADP-Glo) [nM]","IC50 ([5]; JH1 kinase domain, ADP-Glo) [nM]",IC50 [6] [nM],IC50 [7] [nM],"IC50 ([1]; JAK2 JH1, ADP-Glo) [nM]","IC50 ([3]; JAK3 JH1, ADP-Glo) [nM]","IC50 ([4]; TYK2 JH1, ADP-Glo) [nM]","IC50 ([5]; JAK1 JH1, ADP-Glo) [nM]"
"Cc1c(-c2cn3nccc3c(N3C[C@@H](C)[C@@](C#N)(C4CC4)C3=O)n2)cnn1C [Example 199, (3R,4S)-3-cyclopropyl-1-(6-(1,5-dimethyl-1H-pyrazol-4-yl)pyrazolo[1,5-a]pyrazin-4-yl)-4-methyl-2-oxopyrrolidine-3-carbonitrile]",100 to 1000,> 100,100 to 1000,5 to 20,< 100,1000 to 5000,5000 to 10000,,,,
"Cn1cc(-c2cc3c(N4CC[C@@](C#N)(C5CC5)C4=O)ccnn3c2)c(F)n1 [Example 12, (S)-3-cyclopropyl-1-(6-(3-fluoro-1-methyl-1H-pyrazol-4-yl)pyrrolo[1,2-b]pyridazin-4-yl)-2-oxopyrrolidine-3-carbonitrile]",100 to 1000,> 100,100 to 1000,5 to 20,100 to 1000,1000 to 5000,> 10000,,,,
"C[C@@H]1CN(c2nc(-c3cnn(C)c3)cn3nccc23)C(=O)[C@]1(C#N)C1CC1 [Example 184, (3R,4S)-3-cyclopropyl-4-methyl-1-(6-(1-methyl-1H-pyrazol-4-yl)pyrazolo[1,5-a]pyrazin-4-yl)-2-oxopyrrolidine-3-carbonitrile]",< 100,20 to 50,< 100,< 5,< 100,100 to 1000,100 to 1000,,,,
"C[C@@H]1CN(c2ccnn3cc(-c4cnn(CC#N)c4)cc23)C(=O)[C@]1(C#N)C1CC1 [Example 168, (3R,4S)-1-(6-(1-(cyanomethyl)-1H-pyrazol-4-yl)pyrrolo[1,2-b]pyridazin-4-yl)-3-cyclopropyl-4-methyl-2-oxopyrrolidine-3-carbonitrile]",< 100,50 to 100,< 100,< 5,< 100,1000 to 5000,1000 to 5000,,,,
"C[C@@H]1CN(c2ccnn3cc(-c4cnn(C5CCCCC5)c4)cc23)C(=O)[C@]1(C#N)C1CC1 [Example 169, (3R,4S)-1-(6-(1-cyclohexyl-1H-pyrazol-4-yl)pyrrolo[1,2-b]pyridazin-4-yl)-3-cyclopropyl-4-methyl-2-oxopyrrolidine-3-carbonitrile]",< 100,> 100,< 100,< 5,< 100,1000 to 5000,1000 to 5000,,,,
"C[C@@H]1CN(c2ccnn3cc(-c4cnn(C5COC5)c4)cc23)C(=O)[C@]1(C#N)C1CC1 [Example 97, (3R,4S)-3-cyclopropyl-4-methyl-1-(6-(1-(oxetan-3-yl)-1H-pyrazol-4-yl)pyrrolo[1,2-b]pyridazin-4-yl)-2-oxopyrrolidine-3-carbonitrile]",< 100,20 to 50,< 100,< 5,< 100,1000 to 5000,1000 to 5000,,,,
"C[C@@H]1CN(c2nc(-c3cnn(C)c3)cn3ncc(F)c23)C(=O)[C@]1(C#N)C1CC1 [Example 187, (3R,4S)-3-cyclopropyl-1-(3-fluoro-6-(1-methyl-1H-pyrazol-4-yl)pyrazolo[1,5-a]pyrazin-4-yl)-4-methyl-2-oxopyrrolidine-3-carbonitrile]",100 to 1000,50 to 100,< 100,< 5,< 100,1000 to 5000,1000 to 5000,,,,
"C[C@@H]1CN(c2ccnn3cc(-c4cnn(C5CC(F)(F)C5)c4)cc23)C(=O)[C@]1(C#N)C1CC1 [Example 157, (3R,4S)-3-cyclopropyl-1-(6-(1-(3,3-difluorocyclobutyl)-1H-pyrazol-4-yl)pyrrolo[1,2-b]pyridazin-4-yl)-4-methyl-2-oxopyrrolidine-3-carbonitrile]",< 100,50 to 100,< 100,< 5,< 100,100 to 1000,1000 to 5000,,,,
"C[C@@H]1CN(c2ccnn3cc(-c4ccc(CC#N)cn4)cc23)C(=O)[C@]1(C#N)C1CC1 [Example 127, (3R,4S)-1-(6-(5-(cyanomethyl)pyridin-2-yl)pyrrolo[1,2-b]pyridazin-4-yl)-3-cyclopropyl-4-methyl-2-oxopyrrolidine-3-carbonitrile trifluoroacetate]",100 to 1000,> 100,100 to 1000,5 to 20,100 to 1000,5000 to 10000,> 10000,,,,
"C[C@@H]1CN(c2ccnn3cc(-c4cnn(-c5ccccn5)c4)cc23)C(=O)[C@]1(C#N)C1CC1 [Example 158, (3R,4S)-3-cyclopropyl-4-methyl-2-oxo-1-(6-(1-(pyridin-2-yl)-1H-pyrazol-4-yl)pyrrolo[1,2-b]pyridazin-4-yl)pyrrolidine-3-carbonitrile]",100 to 1000,> 100,100 to 1000,< 5,100 to 1000,1000 to 5000,> 10000,,,,
"C[C@@H]1CN(c2ccnn3cc(-c4cnc5[nH]ccc5c4)cc23)C(=O)[C@]1(C#N)C1CC1 [Example 64, (3R,4S)-1-(6-(1H-pyrrolo[2,3-b]pyridin-5-yl)pyrrolo[1,2-b]pyridazin-4-yl)-3-cyclopropyl-4-methyl-2-oxopyrrolidine-3-carbonitrile]",100 to 1000,50 to 100,100 to 1000,5 to 20,100 to 1000,1000 to 5000,5000 to 10000,,,,

# Next, values leading:
"IC50 ([1]; JH1 kinase domain, ADP-Glo) [nM]",IC50 [2] [nM],"IC50 ([3]; JH1 kinase domain, ADP-Glo) [nM]","IC50 ([4]; JH1 kinase domain, ADP-Glo) [nM]","IC50 ([5]; JH1 kinase domain, ADP-Glo) [nM]",IC50 [6] [nM],IC50 [7] [nM],"IC50 ([1]; JAK2 JH1, ADP-Glo) [nM]","IC50 ([3]; JAK3 JH1, ADP-Glo) [nM]","IC50 ([4]; TYK2 JH1, ADP-Glo) [nM]","IC50 ([5]; JAK1 JH1, ADP-Glo) [nM]",Structure (SMILES)
,> 100,,,,100 to 1000,1000 to 5000,100 to 1000,< 100,< 5,< 100,"CNC(=O)c1ccc(-c2cn3nccc3c(N3C[C@@H](C)[C@@](C#N)(C4CC4)C3=O)n2)cn1 [Example 227, 5-(4-((3R,4S)-3-cyano-3-cyclopropyl-4-methyl-2-oxopyrrolidin-1-yl)pyrazolo[1,5-a]pyrazin-6-yl)-N-methylpicolinamide trifluoroacetate]"
,50 to 100,,,,1000 to 5000,100 to 1000,< 100,< 100,< 5,100 to 1000,"C[C@@H]1CN(c2ccnn3cc(-c4cnn(C5CCN(C)CC5)c4)cc23)C(=O)[C@]1(C#N)C1CC1 [Example 331, (3R,4S)-3-cyclopropyl-4-methyl-1-(6-(1-(1-methylpiperidin-4-yl)-1H-pyrazol-4-yl)pyrrolo[1,2-b]pyridazin-4-yl)-2-oxopyrrolidine-3-carbonitrile]"
,> 100,,,,100 to 1000,1000 to 5000,100 to 1000,< 100,< 5,100 to 1000,"C[C@@H]1CN(c2ccnc3cc(-c4cnn(C56CC(C5)C6)c4)oc23)C(=O)[C@]1(C#N)C1CC1 [Example 344, (3R,4S)-1-(2-(1-(bicyclo[1.1.1]pentan-1-yl)-1H-pyrazol-4-yl)furo[3,2-b]pyridin-7-yl)-3-cyclopropyl-4-methyl-2-oxopyrrolidine-3-carbonitrile]"
,> 100,,,,5000 to 10000,1000 to 5000,< 100,< 100,< 5,< 100,"C[C@@H]1CN(c2nc(-c3cnn([C@H]4C[C@@](F)(C#N)C4)c3)cn3ncc(F)c23)C(=O)[C@]1(C#N)C1CC1 [Example 309, (3R,4S)-1-(6-(1-((1r,3R)-3-cyano-3-fluorocyclobutyl)-1H-pyrazol-4-yl)-3-fluoropyrazolo[1,5-a]pyrazin-4-yl)-3-cyclopropyl-4-methyl-2-oxopyrrolidine-3-carbonitrile]"
,50 to 100,,,,1000 to 5000,1000 to 5000,< 100,100 to 1000,< 5,100 to 1000,"C[C@@H]1CN(c2ccnn3cc(-c4cn(C5COC5)nc4F)cc23)C(=O)[C@]1(C#N)C1CC1 [Example 321, (3R,4S)-3-cyclopropyl-1-(6-(3-fluoro-1-(oxetan-3-yl)-1H-pyrazol-4-yl)pyrrolo[1,2-b]pyridazin-4-yl)-4-methyl-2-oxopyrrolidine-3-carbonitrile]"
